Measurements as given in patent publication US8124637B2, “Anthra [1, 2-d]imidazole-6,11-dione derivatives, preparation method and application thereof” (National Defense Medical Center, priority 2010, dated 2012).

Legend:
[1] = MTT assay (relative cell survival), H1299; details: human, H1299 non-small cell lung cancer cells (PhTERT-SEAP), Relative MTT viability (%)
Description: Further, cells were subjected to MTT assay to compare the relative toxicity or effect of each compound on cell proliferation and activity.
The above-described cells are cultured in a 96-well plate, to which was added with 25 μl MTT solution, and cultured in a 37° C. carbon dioxide incubator for 4 hours. Then, 100 μl Lysis buffer is added and incubated in a 37° C. carbon dioxide incubator overnight. An ELISA reader (Bio-Rad Model 450) is used to read optical density (O.D.) at 550 nm.
After being subjected to different compound treatments for 72 hours, cells were treated with a fixed amount of MTT solution for 28 hours. Then, DMSO was used to dissolve back formazan, an O. D. value was detected at wavelength in the range of 550/670 nm, and calculated accordingly the cell survival rate (as shown in Table 1).

EKVX = assay: NCI 60-cell drug screen, one dose; type: cell-based, human; details: Non-Small Cell Lung Cancer EKVX, 1.00E−5 Molar
Description: (§1) In brief, cellular protein levels were determined after 48 hours of drug exposure by sulforhodamine B colorimetry.
(§2) The screening system in United State National Cancer Institute (NCI) consists of 60 kinds of different human cancer cells, which can be used to assay the growth-inhibiting ability or cell toxicity of a compound against various cancer and tumor at a certain concentration. The NCI had selected 6 compounds synthesized above, and performed cell toxicity assay against 60 kinds of cancer cell strains (Table 2) (DTP Human Tumor Cell Line Screen), in which each compound was assayed at a certain concentration to observe its inhibition ability or cell toxicity against various kinds of cancer and tumor.

HT29 = assay: NCI 60-cell drug screen, one dose; type: cell-based, human; details: Colon Cancer HT29, 1.00E−5 Molar
Description: as §1, §2

OVCAR-4 = assay: NCI 60-cell drug screen, one dose; type: cell-based, human; details: Ovarian Cancer OVCAR-4, 1.00E−5 Molar
Description: as §1, §2

HCT-15 = assay: NCI 60-cell drug screen, one dose; type: cell-based, human; details: Colon Cancer HCT-15, 1.00E−5 Molar
Description: as §1, §2

DU145 = assay: NCI 60-cell drug screen, one dose; type: cell-based, human; details: Prostate Cancer DU145, 1.00E−5 Molar
Description: as §1, §2

NCI-H522 = assay: NCI 60-cell drug screen, one dose; type: cell-based, human; details: Non-Small Cell Lung Cancer NCI-H522, 1.00E−5 Molar
Description: as §1, §2

NCI/ADR-RES = assay: NCI 60-cell drug screen, one dose; type: cell-based, human; details: Ovarian Cancer NCI/ADR-RES, 1.00E−5 Molar
Description: as §1, §2

HCT-116 = assay: NCI 60-cell drug screen, one dose; type: cell-based, human; details: Colon Cancer HCT-116, 1.00E−5 Molar
Description: as §1, §2

SNB-19 = assay: NCI 60-cell drug screen, one dose; type: cell-based, human; details: CNS Cancer SNB-19, 1.00E−5 Molar
Description: as §1, §2

CCRF-CEM = assay: NCI 60-cell drug screen, one dose; type: cell-based, human; details: Leukemia CCRF-CEM, 1.00E−5 Molar
Description: as §1, §2

ACHN = assay: NCI 60-cell drug screen, one dose; type: cell-based, human; details: Renal Cancer ACHN, 1.00E−5 Molar
Description: as §1, §2

NCI-H322M = assay: NCI 60-cell drug screen, one dose; type: cell-based, human; details: Non-Small Cell Lung Cancer NCI-H322M, 1.00E−5 Molar
Description: as §1, §2

HOP-92 = assay: NCI 60-cell drug screen, one dose; type: cell-based, human; details: Non-Small Cell Lung Cancer HOP-92, 1.00E−5 Molar
Description: as §1, §2

HS 578-T = assay: NCI 60-cell drug screen, one dose; type: cell-based, human; details: Breast Cancer HS 578-T, 1.00E−5 Molar
Description: as §1, §2

HCC-2998 = assay: NCI 60-cell drug screen, one dose; type: cell-based, human; details: Colon Cancer HCC-2998, 1.00E−5 Molar
Description: as §1, §2

NCI-H226 = assay: NCI 60-cell drug screen, one dose; type: cell-based, human; details: Non-Small Cell Lung Cancer NCI-H226, 1.00E−5 Molar
Description: as §1, §2

PC-3 = assay: NCI 60-cell drug screen, one dose; type: cell-based, human; details: Prostate Cancer PC-3, 1.00E−5 Molar
Description: as §1, §2

OVCAR-3 = assay: NCI 60-cell drug screen, one dose; type: cell-based, human; details: Ovarian Cancer OVCAR-3, 1.00E−5 Molar
Description: as §1, §2

IGROV1 = assay: NCI 60-cell drug screen, one dose; type: cell-based, human; details: Ovarian Cancer IGROV1, 1.00E−5 Molar
Description: as §1, §2

SW-620 = assay: NCI 60-cell drug screen, one dose; type: cell-based, human; details: Colon Cancer SW-620, 1.00E−5 Molar
Description: as §1, §2

COLO 205 = assay: NCI 60-cell drug screen, one dose; type: cell-based, human; details: Colon Cancer COLO 205, 1.00E−5 Molar
Description: as §1, §2

NCI-H460 = assay: NCI 60-cell drug screen, one dose; type: cell-based, human; details: Non-Small Cell Lung Cancer NCI-H460, 1.00E−5 Molar
Description: as §1, §2

MDA-MB-231/ATCC = assay: NCI 60-cell drug screen, one dose; type: cell-based, human; details: Breast Cancer MDA-MB-231/ATCC, 1.00E−5 Molar
Description: as §1, §2

KM12 = assay: NCI 60-cell drug screen, one dose; type: cell-based, human; details: Colon Cancer KM12, 1.00E−5 Molar
Description: as §1, §2

MOLT-4 = assay: NCI 60-cell drug screen, one dose; type: cell-based, human; details: Leukemia MOLT-4, 1.00E−5 Molar
Description: as §1, §2

SR = assay: NCI 60-cell drug screen, one dose; type: cell-based, human; details: Leukemia SR, 1.00E−5 Molar
Description: as §1, §2

SF-295 = assay: NCI 60-cell drug screen, one dose; type: cell-based, human; details: CNS Cancer SF-295, 1.00E−5 Molar
Description: as §1, §2

OVCAR-8 = assay: NCI 60-cell drug screen, one dose; type: cell-based, human; details: Ovarian Cancer OVCAR-8, 1.00E−5 Molar
Description: as §1, §2

A549/ATCC = assay: NCI 60-cell drug screen, one dose; type: cell-based, human; details: Non-Small Cell Lung Cancer A549/ATCC, 1.00E−5 Molar
Description: as §1, §2

What does the source list for O=C1c2ccccc2C(=O)c2c1ccc1nc(CN3CCCCC3)[nH]c21 [CL16, 2-((piperidin-1-yl)methyl)-1H-anthra[1,2-d]imidazole-6,11-dione]?
viability at 72 h, 1 µM [1]: 111 ± 8.66%; viability at 72 h, 100 µM ([1]; 100 μM): 19.6%; Growth Percent (EKVX): 77.14%; Growth Percent (HT29): 61.38%; Growth Percent (OVCAR-4): 65.27%; Growth Percent (HCT-15): 54.20%; Growth Percent (DU145): 74.90%; Growth Percent (NCI-H522): 84.14%; Growth Percent (NCI/ADR-RES): 73.52%; Growth Percent (HCT-116): 62.12%; Growth Percent (SNB-19): 76.33%; Growth Percent (CCRF-CEM): 102.47%; Growth Percent (ACHN): 47.11%; Growth Percent (NCI-H322M): 92.47%; Growth Percent (HOP-92): 80.97%; Growth Percent (HS 578-T): 50.98%; Growth Percent (HCC-2998): 82.81%; Growth Percent (NCI-H226): 78.85%; Growth Percent (PC-3): 81.94%; Growth Percent (OVCAR-3): 66.26%; Growth Percent (IGROV1): 54.22%; Growth Percent (SW-620): 71.72%; Growth Percent (COLO 205): 74.65%; Growth Percent (NCI-H460): 64.61%; Growth Percent (MDA-MB-231/ATCC): 77.93%; Growth Percent (KM12): 77.40%; Growth Percent (MOLT-4): 22.77%; Growth Percent (SR): 57.64%

What does the source list for CN1CCN(Cc2nc3ccc4c(c3[nH]2)C(=O)c2ccccc2C4=O)CC1 [CL24, 2-((4-methylpiperazin-1-yl)methyl)-1H-anthra[1,2-d]imidazole-6,11-dione]?
viability at 72 h, 1 µM [1]: 87.4 ± 5.52%; viability at 72 h, 10 µM [1]: < 50%; Growth Percent (EKVX): 65.93%; Growth Percent (HT29): 22.64%; Growth Percent (OVCAR-4): 50.98%; Growth Percent (HCT-15): 44.98%; Growth Percent (DU145): 60.08%; Growth Percent (NCI-H522): 64.61%; Growth Percent (HCT-116): 27.73%; Growth Percent (SNB-19): 65.60%; Growth Percent (CCRF-CEM): 34.45%; Growth Percent (ACHN): 33.08%; Growth Percent (NCI-H322M): 82.41%; Growth Percent (HOP-92): 9.17%; Growth Percent (HS 578-T): 51.48%; Growth Percent (HCC-2998): 61.90%; Growth Percent (NCI-H226): 64.48%; Growth Percent (OVCAR-3): 52.79%; Growth Percent (IGROV1): 12.05%; Growth Percent (SW-620): 44.22%; Growth Percent (SF-295): 81.61%; Growth Percent (COLO 205): 53.66%; Growth Percent (NCI-H460): 57.35%; Growth Percent (MDA-MB-231/ATCC): 61.66%; Growth Percent (KM12): 55.51%; Growth Percent (SR): 21.48%

Which results are given for CCN(CC)Cc1nc2ccc3c(c2[nH]1)C(=O)c1ccccc1C3=O [CL04, 2-((diethylamino)methyl)-1H-anthra[1,2-d]imidazole-6,11-dione]?
viability at 72 h, 1 µM [1]: 101 ± 6.67%; viability at 72 h, 10 µM [1]: > 50%; Growth Percent (EKVX): 73.22%; Growth Percent (HT29): 56.02%; Growth Percent (OVCAR-4): 65.69%; Growth Percent (HCT-15): 65.75%; Growth Percent (DU145): 73.54%; Growth Percent (NCI-H522): 73.14%; Growth Percent (NCI/ADR-RES): 65.32%; Growth Percent (HCT-116): 48.22%; Growth Percent (SNB-19): 75.06%; Growth Percent (CCRF-CEM): 47.88%; Growth Percent (ACHN): 48.41%; Growth Percent (NCI-H322M): 90.06%; Growth Percent (HOP-92): 56.11%; Growth Percent (HS 578-T): 70.37%; Growth Percent (HCC-2998): 80.61%; Growth Percent (NCI-H226): 77.20%; Growth Percent (OVCAR-3): 63.32%; Growth Percent (IGROV1): 13.61%; Growth Percent (SW-620): 60.46%; Growth Percent (SF-295): 89.56%; Growth Percent (COLO 205): 81.00%; Growth Percent (NCI-H460): 55.50%; Growth Percent (MDA-MB-231/ATCC): 75.52%; Growth Percent (KM12): 76.89%; Growth Percent (SR): 42.38%

Which “Growth Percent” value (EKVX) does the source give for O=C1c2ccccc2C(=O)c2c1ccc1nc(CN3CCN(c4ccccc4)CC3)[nH]c21 [CL27, 2-((4-phenylpiperazin-1-yl)methyl)-1H-anthra[1,2-d]imidazole-6,11-dione] here?
Its value is 88.70%.

And the “Growth Percent” value (HT29)?
Its value is 87.57%.

And the “Growth Percent” value (OVCAR-4)?
The value was 67.72%.

What about the “Growth Percent” value (HCT-15) of the same compound?
The value was 74.39%.

What about the “Growth Percent” value (DU145) of the same compound?
Its value is 90.69%.

And the “Growth Percent” value (NCI-H522)?
The value was 73.61%.

And the “Growth Percent” value (NCI/ADR-RES)?
Its value is 80.36%.

What about the “Growth Percent” value (HCT-116) of the same compound?
Its value is 78.28%.

What about the “Growth Percent” value (SNB-19) of the same compound?
The value was 103.62%.

And the “Growth Percent” value (CCRF-CEM)?
The value was 74.42%.

And the “Growth Percent” value (ACHN)?
Its value is 86.32%.

What about the “Growth Percent” value (NCI-H322M) of the same compound?
Its value is 91.96%.

What about the “Growth Percent” value (HOP-92) of the same compound?
The value was 178.61%.

And the “Growth Percent” value (OVCAR-8)?
Its value is 80.89%.

And the “Growth Percent” value (HS 578-T)?
The value was 80.56%.

And the “Growth Percent” value (A549/ATCC)?
Its value is 111.76%.

What about the “Growth Percent” value (NCI-H226) of the same compound?
Its value is 82.98%.

And the “Growth Percent” value (PC-3)?
The value was 77.91%.

And the “Growth Percent” value (OVCAR-3)?
The value was 76.56%.

What about the “Growth Percent” value (IGROV1) of the same compound?
Its value is 69.25%.

What about the “Growth Percent” value (SW-620) of the same compound?
The value was 90.92%.

And the “Growth Percent” value (SF-295)?
Its value is 105.37%.

What about the “Growth Percent” value (COLO 205) of the same compound?
Its value is 128.37%.

And the “Growth Percent” value (NCI-H460)?
Its value is 94.45%.

And the “Growth Percent” value (MDA-MB-231/ATCC)?
Its value is 90.47%.

What about the “Growth Percent” value (KM12) of the same compound?
Its value is 85.80%.

And the “Growth Percent” value (MOLT-4)?
Its value is 55.21%.

And the “Growth Percent” value (SR)?
The value was 43.11%.
